Experimental findings from patent publication US5273986A, “Cycloalkylthiazoles” (Hoffmann-La Roche Inc., priority 1992, dated 1993) are described below.

For assay [1], the system named is LTD4-induced bronchoconstriction. The assay can be described thus: Antagonism of LTD4-induced bronchoconstriction in guinea pigs. The assay is classed as in vivo, guinea pig (male, Hartley strain). The note with it: for ED50 / inhibition in vivo at 1 mg/kg: Cavia porcellus; for inhibition in vivo at 1 mg/kg: read-out: percent inhibition at 1 mg/kg p.o., LTD4-induced bronchoconstriction (ID50 not determined). On the procedure: Male guinea pigs (Hartley strain, Charles River) weighing 400-600 g were anesthetized with urethane (2 g/kg) intraperitoneally, and a polyethylene cannula was inserted into the jugular vein for intravenous drug administration. Tracheal pressure (cm of H2 O) was recorded from a Statham pressure transducer (P 32 AA). Propranolol was administered 5 minutes prior to challenge with LTD4. Two minutes later spontaneous breathing was arrested with succinylcholine chloride (1.2 mg/kg) administered intravenously, and the animals were ventilated with a Harvard (Model 680) small animal respirator set at 40 breaths/min and a 4.0 cc stroke volume. Control vehicle (DMSO) or test compound was administered through the cannula into the jugular vein 1 minute before the animals were challenged with a maximum constrictory dose of LTD4 ([…] I.V.) given intravenously. The change in tracheal pressure was averaged for control and drug-treated animals and percent inhibition was calculated. For determination of oral activity, animals were dosed with test compound or vehicle (PEG400) two hours prior to challenge with LTD4 ([…], i.v.).
The relative potency of test compounds administered by the intravenous and oral route was determined by administering increasing doses of test compound at a fixed pretreatment time. The median inhibitory dose (ID50 value) was determined by linear regression of log dose-responsecurves generated by at least 3 doses that caused statistically significant inhibition between 10 and 90%. The correlation coefficient for the regression line was always greater than 0.95. For determination of the time-course of inhibition for various compounds, the time between administration of compound and challenge with LTD4 was varied. Durations of action were defined as the time for inhibitory activity to decrease to 50%.

Another assay has as its target T1, LTD4 receptor (Cavia porcellus, UniProt Q2NNR5).
T1 construct: A lung homogenate was prepared from guinea pig lung membranes; from tissue; host or cells: guinea pig lung membranes
T1 sequence (Q2NNR5 1-340): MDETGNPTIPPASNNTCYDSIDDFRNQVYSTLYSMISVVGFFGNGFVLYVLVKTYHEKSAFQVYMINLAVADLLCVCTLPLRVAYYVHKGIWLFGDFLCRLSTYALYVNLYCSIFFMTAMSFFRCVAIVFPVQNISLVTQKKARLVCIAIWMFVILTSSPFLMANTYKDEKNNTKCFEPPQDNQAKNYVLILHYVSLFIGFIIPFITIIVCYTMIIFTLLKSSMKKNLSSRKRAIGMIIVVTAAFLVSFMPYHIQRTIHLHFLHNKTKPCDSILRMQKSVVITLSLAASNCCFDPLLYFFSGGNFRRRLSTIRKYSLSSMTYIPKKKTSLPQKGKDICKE
Put plainly: LTD4 receptor ligand binding assay (inhibition of [3H]LTD4 specific binding, guinea pig lung membranes). The note with it: 20° C., 30 min. As to the method: A lung homogenate was prepared from guinea pig lung membranes and was resuspended in buffer containing 10 mM Tris.HCl (pH 7.5) (Hogaboom et al., Hogaboom, G. K., et al: Peptidoleukotrienes: distinct receptors for leukotriene C4 and D4 in the guinea pig lung. Biochem. Biophys. Res. Commun. 116: 1136-1143, 1983). Optimum assay conditions were determined with an assay mixture containing: 10 mM Tris.HCl (pH 7.5); 0.1% bovine serum albumin (BSA); 1 mM glycine; 1 mM cysteine; 3.5 nM [^3 H]LTD4 and the membrane preparation ([…] protein) in a final volume of […]. The incubation was carried out at 20° C. for 30 minutes. At 20° C., binding increased linearly with protein concentration, reached equilibrium in 20 minutes, was saturable, and was reversible upon addition of 1 mM unlabelled LTD4. Separation of bound from free [^3 H]LTD4 as performed by rapid filtration on GF/C glass fiber filters (Whatman International Ltd., Maidstone, England) and washing with two 4-ml aliquots of Tyrode solution (0.9 g/100 ml NaCl; 0.02 g/100 ml KCl; 0.02 g/100 ml CaCl2; 0.01 g/100 ml MgCl2; 0.1 g/100 ml glucose; 0.1 g/100 ml NaHCO3; 0.005 g/100 ml NaH2 PO4) containing 0.1% BSA. Radioactivity remaining on the filters was measured in 10 ml of Aquasol. Specific binding, was defined as that displaced by 1 mM unlabelled LTD4, and was 95% of total binding.
The inhibition of [^3 H]LTD4 specific binding by an antagonist is related to the LTD4 content of that sample by regression analysis from a "standard curve" of the inhibition of [^3 H]LTD4 specific binding by nonlabeled LTD4. The median inhibitory concentration (IC50 value) was determined by linear regression of log concentration-response curves generated by at least 3 concentrations that caused statistically significant inhibition between 10 and 90%. Results are expressed as mean±S. E. M. (standard error of the mean) of n independent experiments (separate receptor batches) conducted in duplicates.

Setting [2] is: iv, 1 min, I.V., compound 1 minute before LTD4 challenge, read-out: ID50 I.V., LTD4-induced bronchoconstriction.
Setting [3] is: po, 2 h, p.o., compound two hours prior to LTD4 challenge, read-out: ID50 p.o., LTD4-induced bronchoconstriction.
Where [4] appears, read: po, 2 h, p.o., 1 mg/kg, compound two hours prior to LTD4 challenge.

Molecules are shown by their SMILES. Read-outs that look alike come from different tables or passages of the source.

Usually IC50 stands for the point on the concentration scale where inhibition reaches its midpoint. The low end stands for greater potency, the high end for weaker potency.

In the case of `CC(C)c1csc(/C=C/c2cccc(NC(=O)Cc3ccccc3C(=O)O)c2)n1` [Example 1, (E)-2-[2-[3-[2-[4-(1-Methylethyl)-2-thiazolyl]ethenyl]phenylamino]-2-oxoethyl]benzoic acid], the ED50 was found to be 0.008 mg/kg in assay [1] (setting [2]) and 0.5 mg/kg in assay [1] (setting [3]). Moreover, the IC50 on LTD4 receptor is 4 nM.

In the case of `O=C(Cc1ccccc1C(=O)O)Nc1cccc(/C=C/c2nc(C3CC3)cs2)c1` [Example 2, (E)-2-[2-[3-[2-[4-(Cyclopropyl)-2-thiazolyl]ethenyl]phenylamino]-2-oxoethyl]benzoic acid], the values for the ED50 in assay [1] (setting [2]) and in assay [1] (setting [3]) were 0.01 mg/kg and 0.22 mg/kg, respectively. This molecule also came in with a half-inhibitory concentration (IC50) at LTD4 receptor of 3 nM.

`O=C(Cc1ccccc1C(=O)O)Nc1cccc(/C=C/c2nc(C3CCC3)cs2)c1` [Example 3, (E)-2-[2-[3-[2-[4-(Cyclobutyl)-2-thiazolyl]ethenyl]phenylamino]-2-oxoethyl]benzoic acid]: the ED50 worked out at 0.01 mg/kg in assay [1] (setting [2]) and 0.22 mg/kg in assay [1] (setting [3]). Besides, at LTD4 receptor, the IC50 stood at 3 nM.

On to `O=C(O)Cc1ccccc1CC(=O)Nc1cccc(/C=C/c2nc(C3CCC3)cs2)c1` [Example 13, (E)-2-[2-[3-[2-[4-(cyclobutyl)-2-thiazolyl]ethenyl]phenylamino]-2-oxoethyl]benzeneacetic acid], for which the figures for the ED50 in assay [1] (setting [2]) and in assay [1] (setting [3]) were 0.01 mg/kg and 0.78 mg/kg, respectively. On LTD4 receptor, this molecule displayed a 50% inhibitory concentration (IC50) of 1000 nM.

For the molecule `CC(C)c1csc(/C=C/c2cccc(NC(=O)Cc3ccccc3CC(=O)O)c2)n1` [Example 14, (E)-2-[2-[3-[2-[4-(1-Methylethyl)-2-thiazolyl]ethenyl]phenylamino]-2-oxoethyl]benzene acetic acid], the ED50 in assay [1] (setting [2]) worked out at 0.05 mg/kg. The inhibition in vivo at 1 mg/kg in assay [1] (setting [4]) came out at 41 ± 8%. On LTD4 receptor, this molecule displayed an IC50 of 1000 nM.

With `CC(C)c1csc(/C=C/c2cccc(NC(=O)Cc3cccc(CC(=O)O)c3)c2)n1` [Example 15, (E)-3-[2-[3-[2-[4-(1-Methylethyl)-2-thiazolyl]ethenyl]phenylamino]-2-oxoethyl]phenylacetic acid], in assay [1] (I.V., 1 mg/kg, compound 1 minute before LTD4 challenge), the “percent inhibition at 1 mg/kg I.V., LTD4-induced bronchoconstriction (ID50 not determined)” value amounted to 40 ± 7%. Besides, at LTD4 receptor, the IC50 was 1000 nM.

Take `CC(C)c1csc(/C=C/c2cc(NC(=O)Cc3ccccc3C(=O)O)ccc2Cl)n1` [Example 17e, (E)-2-[2-[4-Chloro-3-[2-[4-(1-methylethyl)-2-thiazolyl]ethenyl]phenylamino]-2-oxoethyl]benzoic acid]: the ED50 in assay [1] (setting [2]) turned out to be 0.28 mg/kg. In assay [1] (setting [4]), the inhibition in vivo at 1 mg/kg stood at 26 ± 7%. Moreover, the IC50 on LTD4 receptor worked out at 900 nM.
